From patent US20130210034A1, “COMPLEX PHOSPHOPROTEIN ACTIVATION PROFILES” (BECKMAN COULTER, INC., priority 2005, published 2013)
Values joined by “and” are separate entries in the source; they are usually repeats but may differ in a detail not shown here. Equal entries are not always repeated.

Key:
Type in all cases: cell-based, human
pERK [1] = experiment: Phosphoprotein kinetic profiles in bone marrow samples from healthy donors; details: for pERK Amp (peak amplitude of fold stimulation) / pERK RI (response interval): CD34^+, CD117^+ cells
Description: (§1) Phosphoprotein kinetic profiles were analyzed in bone marrow aspiration samples from nine healthy, adult donors (i.e., normal bone marrow or NBM) and from five AML patients. Samples from healthy donors included 5 males and 4 females, ranging in age from 26 to 49 years. Approximately 10 to 20 mL of bone marrow (BM) samples were collected from the posterior iliac crest of the volunteers using IRB approved protocols. The BM samples were filtered using a 40 μm Nylon cell strainer to remove marrow particles and the white blood cell concentration determined using a blood analyzer. […] The samples were immediately used for subsequent experimentation.
(§2) To assess the signal transduction response after growth factor simulation, 100 to 200 μL of processed samples including about 2×10^6 WBC/100 μL were added to tubes and incubated at 37° C. for 30 minutes. For inhibition experiments, cells were incubated with 100 μM U0126, 1 μg/mL rapamycin, or both for at least 20 minutes prior to cytokine addition and in all cases for 30 min prior to formaldehyde addition. […] After stimulation the cells were immediately fixed by the addition of formaldehyde to a final concentration of 4% v/v and incubated for 10 minutes at room temperature. Following fixation, red blood cells were lysed by the addition of TRITON-X/PBS solution (0.1% v/v final concentration Triton X-100) supplemented with a 1 x phosphatase inhibitor cocktail (PIC; final concentrations: 0.2 mM sodium orthovanadate, 2 mM sodium pyrophosphate decahydrate, 2 mM [3-glycerophosphate, and 10 mM sodium fluoride) and incubation at 37° C. for 20 minutes. The incubated solution was chilled by the addition of ice-cold Wash Buffer (final concentration 1×PBS and either 4% bovine serum albumin (BSA) or 4% heat-inactivated fetal bovine serum (FBS), supplemented with 1×PIC), and the samples were centrifuged at 300 g for 6 minutes at 4° C.). If the lysis was incomplete, samples were retreated with 0.1% Triton X-100 at 37° C. for 10 to 20 minutes. After removal of the supernatant, cells were washed twice in ice-cold Wash Buffer supplemented with 1×PIC and permeabilized by the addition of pre-chilled 80% methanol while simultaneously vortexing the tube and incubated on ice for 10 minutes. Methanol was removed by centrifugation, the pellet was washed with ice-cold 1×PBS, and non-specific binding was blocked by the addition of ice-cold Wash Buffer supplemented with 1×PIC and incubation at 4° C. for a minimum of 30 minutes.
(§3) To stain cells with fluorescent conjugated monoclonal antibodies, the incubated solution was centrifuged to remove the supernatant and the pellet was incubated for 60 minutes at 4° C. with an antibody staining solution including 0.25 μg to 0.50 μg of pS6-Pacific Blue, pERK-ALEXA 488, pSTAT5-ALEXA 647, CD34-PE, CD45-PerCP, and CD117-PC7. Samples were washed three times with ice-cold Wash Buffer supplemented with 1×PIC, resuspended in 0.5 mL ice-cold Wash Buffer supplemented with 1×PIC including 0.5 μg/mL DAPI, and analyzed by flow cytometryusing a BD LSR II Flow Cytometer, equipped with a High Throughput Sampler (HTS).
(§4) First, doublets, aggregates, and debris were excluded by gating on single cell events in the SSC-Area versus SSC-Height histogram. Then, in events passing through this gate, debris near the origin of the FSC-Area versus SSC-Area plot (gray in FIG. 4A) was excluded by drawing a gate around an area encompassing, primarily, lymphocytes, monocytes, and granulocytes (LMG, black in FIG. 4A). Next, in cells passing through the LMG gate, the blast region (circle in FIG. 4B) was identified in the CD45 versus SSC-Area histogram (FIG. 4B). From this blast population, CD34+, CD117+ cells were identified in the CD34 versus CD117 plot (boxed area in FIG. 4C).

pS6 [2] = experiment: as above; details: for pS6 Amp (peak amplitude of fold stimulation) / pS6 RI (response interval): CD34^+, CD117^+ cells
Description: as §1, §2, §3, §4

pSTAT5 [3] = experiment: as above; details: CD34^+, CD117^+ cells, healthy donor samples
Description: as §1, §2, §3, §4

pERK [4] = experiment: Phosphoprotein kinetic profiles in CD34+, CD117+ cells of AML bone marrow samples; details: for pERK Amp (peak amplitude of fold stimulation) / pERK RI (response interval): CD34^+, CD117^+ cells; for Frequency, pERK: frequency of positive-stained cells; for Positives/Negatives, pERK: ratio of positive- to negative-stained cells; for pERK response, fold greater than in healthy donor samples: SCF: AML1 and AML2, FL: AML1
Description: as §2, §3
(§5) First, doublets, aggregates, and debris were excluded by gating on single cell events in the SSC-Area versus SSC-Height histogram. Then, in events passing through this gate, debris near the origin of the FSC-Area versus SSC-Area plot (gray in FIG. 4A) was excluded by drawing a gate around an area encompassing, primarily, lymphocytes, monocytes, and granulocytes (LMG, black in FIG. 4A). Next, in cells passing through the LMG gate, the blast region (circle in FIG. 4B) was identified in the CD45 versus SSC-Area histogram (FIG. 4B). From this blast population, CD34+, CD117+ cells were identified in the CD34 versus CD117 plot (boxed area in FIG. 4C). Finally, these cells were further analyzed for cytokine-mediated increases in phosphorylation by constructing gates in the single parameter histograms (for positively and negatively stained events, i.e., for the phosphorylated and non-phosphorylated forms, respectively, of each protein) for pS6 (FIGS. 4D and 4G), pERK (FIGS. 4E and 4H), and pSTAT5 (FIGS. 4F and 4I). […] The dotted lines in each of these histograms represent unstimulated cells at t=0 min. FCS files were processed with WinList 6.0 3D (Verity Software House).

pS6 [5] = experiment: as above; details: for pS6 Amp (peak amplitude of fold stimulation) / pS6 RI (response interval): CD34^+, CD117^+ cells; for Frequency, pS6: frequency of positive-stained cells; for Positives/Negatives, pS6: ratio of positive- to negative-stained cells
Description: as §2, §3, §5

pSTAT5 [6] = experiment: as above
Description: as §2, §3, §5

[7] = SCF-stimulated, healthy donor samples
[8] = SCF-stimulated, mean of healthy donors 6 to 9

Molecule: Stem Cell Factor [SCF]
- pERK Amp (peak amplitude of fold stimulation) (pERK [1]; healthy donor samples): 120 and 120 ± 28
- pERK RI (response interval) (pERK [1]; healthy donor samples): 8.7 min and 8.7 ± 0.3 min
- frequency of positively stained cells at its maximum, pERK (pERK [1]; [7]): 81%
- Fold Stimulation, pERK (pERK [1]; [8]): 53
- Frequency, pERK (pERK [1]; [8]): 81
- MFI, pERK (pERK [1]; [8]): 3700
- Positives/Negatives, pERK (pERK [1]; [8]): 4.9
- pS6 Amp (peak amplitude of fold stimulation) (pS6 [2]; healthy donor samples): 18 ± 5.1
- pS6 RI (response interval) (pS6 [2]; healthy donor samples): 28 min and 28 ± 1.2 min
- frequency of positively stained cells at its maximum, pS6 (pS6 [2]; [7]): 26%
- Fold Stimulation, pS6 (pS6 [2]; [8]): 10
- Frequency, pS6 (pS6 [2]; [8]): 26
- MFI, pS6 (pS6 [2]; [8]): 1040
- Positives/Negatives, pS6 (pS6 [2]; [8]): 0.44
- pSTAT5 Amp (peak amplitude of fold stimulation) (pSTAT5 [3]): 0.8 ± 0.2
- pSTAT5 RI (response interval) (pSTAT5 [3]): Variable
- pERK Amp (peak amplitude of fold stimulation) (pERK [4]; AML1 sample (Example 6)): 1600
- pERK RI (response interval) (pERK [4]; AML1 sample (Example 6)): 30 min
- pERK Amp (peak amplitude of fold stimulation) (pERK [4]; AML2 sample (Example 6)): 1300
- pERK RI (response interval) (pERK [4]; AML2 sample (Example 6)): 20 min
- Fold Stimulation, AML to NBM ratio (pERK)AML1/(pERK)D6-9 (pERK [4]; SCF-stimulated): 30
- Fold Stimulation, AML to NBM ratio (pERK)AML2/(pERK)D6-9 (pERK [4]; SCF-stimulated): 25
- Frequency, AML to NBM ratio (pERK)AML1/(pERK)D6-9 (pERK [4]; SCF-stimulated): 1.1
- Frequency, AML to NBM ratio (pERK)AML2/(pERK)D6-9 (pERK [4]; SCF-stimulated): 1.1
- MFI, AML to NBM ratio (pERK)AML1/(pERK)D6-9 (pERK [4]; SCF-stimulated): 0.41
- MFI, AML to NBM ratio (pERK)AML2/(pERK)D6-9 (pERK [4]; SCF-stimulated): 0.35
- Positives/Negatives, AML to NBM ratio (pERK)AML1/(pERK)D6-9 (pERK [4]; SCF-stimulated): 2.0
- Positives/Negatives, AML to NBM ratio (pERK)AML2/(pERK)D6-9 (pERK [4]; SCF-stimulated): 1.5
- Fold Stimulation, pERK (pERK [4]; SCF-stimulated, AML1): 1600
- MFI, pERK (pERK [4]; SCF-stimulated, AML1): 1500
- Frequency, pERK (pERK [4]; SCF-stimulated, AML1): 88
- Positives/Negatives, pERK (pERK [4]; SCF-stimulated, AML1): 10
- Fold Stimulation, pERK (pERK [4]; SCF-stimulated, AML2): 1300
- MFI, pERK (pERK [4]; SCF-stimulated, AML2): 1300
- Frequency, pERK (pERK [4]; SCF-stimulated, AML2): 90
- Positives/Negatives, pERK (pERK [4]; SCF-stimulated, AML2): 7.4
- frequency of positively stained cells at its maximum, pERK (pERK [4]; SCF-stimulated, AML samples): approximately 90%
- pERK response, fold greater than in healthy donor samples (pERK [4]): approximately 10 fold
- pS6 Amp (peak amplitude of fold stimulation) (pS6 [5]; AML1 sample (Example 6)): 1100
- pS6 RI (response interval) (pS6 [5]; AML1 sample (Example 6)): 30 min
- pS6 Amp (peak amplitude of fold stimulation) (pS6 [5]; AML2 sample (Example 6)): 620
- pS6 RI (response interval) (pS6 [5]; AML2 sample (Example 6)): 30 min
- Fold Stimulation, AML to NBM ratio (pS6)AML1/(pS6)D6-9 (pS6 [5]; SCF-stimulated): 110
- Fold Stimulation, AML to NBM ratio (pS6)AML2/(pS6)D6-9 (pS6 [5]; SCF-stimulated): 62
- Frequency, AML to NBM ratio (pS6)AML1/(pS6)D6-9 (pS6 [5]; SCF-stimulated): 3.7
- Frequency, AML to NBM ratio (pS6)AML2/(pS6)D6-9 (pS6 [5]; SCF-stimulated): 3.7
- MFI, AML to NBM ratio (pS6)AML1/(pS6)D6-9 (pS6 [5]; SCF-stimulated): 3.0
- MFI, AML to NBM ratio (pS6)AML2/(pS6)D6-9 (pS6 [5]; SCF-stimulated): 2.3
- Positives/Negatives, AML to NBM ratio (pS6)AML1/(pS6)D6-9 (pS6 [5]; SCF-stimulated): 80
- Positives/Negatives, AML to NBM ratio (pS6)AML2/(pS6)D6-9 (pS6 [5]; SCF-stimulated): 52
- Fold Stimulation, pS6 (pS6 [5]; SCF-stimulated, AML1): 1100
- MFI, pS6 (pS6 [5]; SCF-stimulated, AML1): 3100
- Frequency, pS6 (pS6 [5]; SCF-stimulated, AML1): 96
- Positives/Negatives, pS6 (pS6 [5]; SCF-stimulated, AML1): 35
- Fold Stimulation, pS6 (pS6 [5]; SCF-stimulated, AML2): 620
- MFI, pS6 (pS6 [5]; SCF-stimulated, AML2): 2400
- Frequency, pS6 (pS6 [5]; SCF-stimulated, AML2): 97
- Positives/Negatives, pS6 (pS6 [5]; SCF-stimulated, AML2): 23
- frequency of positively stained cells at its maximum, pS6 (pS6 [5]; SCF-stimulated, AML samples): ~97%
- pSTAT5 Amp (peak amplitude of fold stimulation) (pSTAT5 [6]; AML1 sample (Example 6)): 32
- pSTAT5 Amp (peak amplitude of fold stimulation) (pSTAT5 [6]; AML2 sample (Example 6)): 2
- pSTAT5 RI (response interval) (pSTAT5 [6]; AML2 sample (Example 6)): 6 min

B1: FMS-Like Tyrosine Kinase 3 (FLT-3) ligand (protein, UniProt P49771 27-235, looked up)
Fms-related tyrosine kinase 3 …: TQDCSFQHSPISSDFAVKIRELSDYLLQDYPVTVASNLQDEELCGGLWRLVLAQRWMERLKTVAGSKMQGLLERVNTEIHFVTKCAFQPPPSCLRFVQTNISRLLQETSEQLVALKPWITRQNFSRCLELQCQPDSSTLPPPWSPRPLEATAPTAPQPPLLLLLLLPVGLLLLAAAWCLHWQRTRRRTPRPGEQVPPVPSPQDLLLVEH
- pERK Amp (peak amplitude of fold stimulation) (pERK [1]; healthy donor samples): 51 and 51 ± 11
- pERK RI (response interval) (pERK [1]; healthy donor samples): 18 min and 18 ± 1.5 min
- pS6 Amp (peak amplitude of fold stimulation) (pS6 [2]; healthy donor samples): 12 and 12 ± 1.4
- pS6 RI (response interval) (pS6 [2]; healthy donor samples): 37 min and 37 ± 6.0 min
- pSTAT5 Amp (peak amplitude of fold stimulation) (pSTAT5 [3]): 0.8 ± 0.2
- pSTAT5 RI (response interval) (pSTAT5 [3]): Variable
- pERK Amp (peak amplitude of fold stimulation) (pERK [4]; AML1 sample (Example 6)): 460
- pERK RI (response interval) (pERK [4]; AML1 sample (Example 6)): 30 min
- pERK response, fold greater than in healthy donor samples (pERK [4]): approximately 10 fold
- pS6 Amp (peak amplitude of fold stimulation) (pS6 [5]; AML1 sample (Example 6)): 140
- pS6 RI (response interval) (pS6 [5]; AML1 sample (Example 6)): 30 min
- pSTAT5 Amp (peak amplitude of fold stimulation) (pSTAT5 [6]; AML1 sample (Example 6)): 2
- pSTAT5 RI (response interval) (pSTAT5 [6]; AML1 sample (Example 6)): 2 min
